# Reference: US20170368089A1, “COMPOSITION FOR PREVENTING OR TREATING COLITIS” (UNIVERSITY-INDUSTRY COOPERATION GROUP OF KYUNG HEE …, priority 2012, published 2017)
# Tests used:
# [1] = system: model animal with acute colitis induced by TNBS; assay: Acute colitis induced by TNBS in mice, appearance analysis of colon (colon length, macroscopic score), first experiment; assay type: in vivo, ICR male mice; conditions: Table 3 (group 2); TNBS-treated mice, 10 mg/kg orally, 3 days
# Description: 4-week ICR male mice (24 to 27 g) were purchased from OrientBio. All the mice were bred under the controlled environmental conditions of 50±10% of humidity and 25±2° C. of temperature, and the lighting was repeatedly on for 12 hours and off for 12 hours. A feed for a standard experiment (Samyang, Korea) was used as a feed, and water was freely taken. For all the experiments, one group was 6 mice. […] Meanwhile, 0.1 ml of normal saline solution was orally administered to the normal group. Since then, from the next day, the sample dissolved in normal saline solution was orally administered in the volume that was decided in advance one time a day for 3 days. At the next day after completing the sample administration, the experimental animals were suffocated to death with carbon dioxide, the colon from appendix to the region just before the anus was removed from the colon region. The scores about the removed colons were estimated by observing the appearances and the lengths of the colons according to the following criteria (Hollenbach, and the like, the criteria about the level of colon in 2005) as listed in Table 1. […] In addition, some of the content in the colon was collected in order to analyze the rumen microorganisms, and then, was stored in a freezer of −80° C. From the tissue of colon, the content in the colon was completely removed and then the tissue of colon was washed with normal saline solution. Since then, some of the tissue was fixed with 4% formaldehyde fixing solution in order to be used as a sample for a histopathological examination, and the rest was stored in a freezer of −80° C. for a molecular biological analysis.
# IL-1 beta [2] = assay: IL-1 beta expression in colon tissue (ELISA), TNBS colitis, first experiment; assay type: in vivo, ICR male mice; conditions: TNBS-treated mice, 10 mg/kg orally, 3 days
# Description: (§1) Among the experimental groups, one group was set as a normal group, and for the experimental animals in other groups, colitis was induced with 2,4,6-trinitrobenzenesulfonic acid (TNBS). In detail, after lightly anesthetizing the experimental animals with ether, 0.1 ml of the solution prepared by mixing […] of 2,4,6-Trinitrobenzene sulfonic acid (NBS) solution with 50% ethanol was injected into the colon through the anus using a syringe having 1 ml volume and oval point, respectively; and then, the syringe was vertically picked up, and then, maintained for 30 seconds to induce the inflammation. Meanwhile, 0.1 ml of normal saline solution was orally administered to the normal group. Since then, from the next day, the sample dissolved in normal saline solution was orally administered in the volume that was decided in advance one time a day for 3 days. At the next day after completing the sample administration, the experimental animals were suffocated to death with carbon dioxide, the colon from appendix to the region just before the anus was removed from the colon region.
# (§2) 250 μl of RIPA butter including protease inhibitor cocktail was added to 100 mg of the colon tissue of experimental animal, and then, the colon tissue was homogenized. Since then, the homogenized colon tissue was centrifuged under the conditions of 4° C. and 13000 rpm for 15 minutes to obtain supernatant. While the supernatant was stored at −80° C., the expression amounts of IL-1 beta, IL-6, and TNF-alpha were measured using a 96-well ELISA plate kits (Pierce Biotechology, Inc., Rockford, Ill., USA).
# IL-1 beta [3] = assay: IL-1 beta expression in colon tissue (ELISA), TNBS colitis, second experiment; assay type: in vivo, ICR male mice; conditions: Table 9, extract-based samples, TNBS-treated mice, 10 mg/kg orally, 3 days
# Description: as §1, with “At the next day after completing the sample administration, the experimental animals were suffocated to death with carbon dioxide, the colon from appendix to the region just before the anus was removed from the colon region.” left out
# as §2, with “Since then, the homogenized colon tissue was centrifuged under the conditions of 4° C. and 13000 rpm for 15 minutes to obtain supernatant.” left out
# TNF-alpha [4] = assay: TNF-alpha expression in colon tissue (ELISA), TNBS colitis, second experiment; assay type: in vivo, ICR male mice; conditions: Table 9, extract-based samples, TNBS-treated mice, 10 mg/kg orally, 3 days
# Description: as §1, with “At the next day after completing the sample administration, the experimental animals were suffocated to death with carbon dioxide, the colon from appendix to the region just before the anus was removed from the colon region.” left out
# as §2, with “Since then, the homogenized colon tissue was centrifuged under the conditions of 4° C. and 13000 rpm for 15 minutes to obtain supernatant.” left out
# TNF-alpha [5] = assay: TNF-alpha expression in colon tissue (ELISA), TNBS acute colitis, third experiment; assay type: in vivo, male mice (C57BL/6); conditions: Table 12; TNBS-treated mice, 10 mg/kg orally, 3 days
# Description: (§3) Meanwhile, 0.1 ml of normal saline solution was orally administered to the normal group. Since then, from the next day, the sample dissolved in normal saline solution was orally administered in the volume that was decided in advance one time a day for 3 days. At the next day after completing the sample administration, the experimental animals were suffocated to death with carbon dioxide, and the colon from appendix to the region just before the anus was removed from the colon region. At this time, as a medicine sample, the experiments using the butanol-soluble fraction of the Anemarrhena asphodeloides Bunge extract, Mangiferin, and a combined extract were separately performed at a distance of time, respectively, and the effects of the medicine samples on preventing or treating colitis were reasonably analyzed based on the group supplied with normal saline solution instead of a specific medicine in the model animals with acute colitis induced by TNBS for each of the experiments. […] While the supernatant was stored at −80° C., the expression amounts of IL-1 beta, IL-6, and TNF-alpha, which were proinflammatory cytokines, and the expression amount of IL-10, which was anti-inflammatory cytokine, were measured using a 96-well ELISA plate kits (Pierce Biotechology, Inc., Rockford, Ill., USA).
# IL-1 beta [6] = assay: IL-1 beta expression in colon tissue (ELISA), TNBS acute colitis, third experiment; assay type: in vivo, male mice (C57BL/6); conditions: Table 12; TNBS-treated mice, 10 mg/kg orally, 3 days
# Description: as §3
# IL-6 = IL-6 expression in colon tissue (ELISA), TNBS acute colitis, third experiment; assay type: in vivo, male mice (C57BL/6); conditions: Table 12; TNBS-treated mice, 10 mg/kg orally, 3 days
# Description: as §3
compound,measurement,setting,value
"Nc1ccc(O)c(C(=O)O)c1 [mesalazine, Mesalazine]",Colon length,[1],7.1 ± 0.46 cm
same,IL-1 beta conc.,IL-1 beta [2]; Table 4 (group 1),19.8 ± 14.4 pg/mg
same,IL-1 beta conc.,IL-1 beta [2]; Table 5 (group 2),31.1 ± 2.9 pg/mg
same,IL-1 beta conc.,IL-1 beta [3],16.30 ± 3.38 pg/mg
same,TNF-alpha conc.,TNF-alpha [4],23.79 ± 2.82 pg/mg
same,TNF-α (Percentage to group supplied with normal saline solution after treating TNBS),TNF-alpha [5],36.8%
same,IL-1β (Percentage to group supplied with normal saline solution after treating TNBS),IL-1 beta [6],30.3%
same,IL-6 (Percentage to group supplied with normal saline solution after treating TNBS),IL-6,26.6%
